These results are taken from paper PMC8058616 (Bioorganic & medicinal chemistry, 2021).

The subject of test [1] is KB human tumor cells. The test can be described thus: Nucleoside/AICA protection of KB cell proliferation. The settings on record: AICA 320 μM.
Test [2] concerns KB human tumor cells. Particulars: AICA 320 μM, as previously reported ref 40; cited from earlier work.
Test [3] deals with PC43–10 CHO cells (human RFC). Particulars: read-out: IC50 PC43–10 (RFC); 96 h; mean (SE); previously published ref 7, 40; cited from earlier work.
Test [4] has as its system PC43–10 CHO cells (human RFC). Kind of test: Proliferation assay, RFC-expressing PC43–10 CHO cells. Particulars: PC43-10, 96 h, read-out: IC50 PC43–10 (RFC).
Test [5] deals with NCI-IGROV1 ovarian cancer cells. The test can be described thus: Proliferation assay, NCI-IGROV1 EOC cells. The settings on record: 96 h; for IC50: Homo sapiens. The format is cell-based, human.
In test [6] the test system is KB nasopharyngeal carcinoma cells. Kind of test: Proliferation assay, KB human tumor cells. The format is cell-based. The settings on record: 96 h, read-out: IC50 KB (+FA).
Another test deals with NCI-IGROV1 EOC cells. The test can be described thus: Targeted metabolomics. The format is cell-based, human. Particulars: 1 μM inhibitor, 48 h; for Increase in ZMP (AICAR) level: relative to control.
Test [7] has as its target human AICARFTase/IMP cyclohydrolase (ATIC) (Homo sapiens, UniProt P31939). The test can be described thus: In vitro spectrophotometric AICARFTase. The format is biochemical. Particulars: ratio of Ki values.
A further test addresses T1, human GARFTase (Homo sapiens, UniProt P22102).
T1 sequence (P22102 808-1010): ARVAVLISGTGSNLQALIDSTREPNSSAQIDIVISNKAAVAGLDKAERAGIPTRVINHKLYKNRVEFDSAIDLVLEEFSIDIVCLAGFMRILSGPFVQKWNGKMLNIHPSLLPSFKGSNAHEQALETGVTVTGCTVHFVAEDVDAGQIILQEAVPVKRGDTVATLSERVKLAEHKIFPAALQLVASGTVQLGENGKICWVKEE
The test can be described thus: In vitro spectrophotometric GARFTase assay with purified enzyme. The class given is biochemical. Particulars: ratio of Ki values.

[8] abbreviates: read-out: IC50 NCI-IGROV1 (+FA).
[9] abbreviates: read-out: IC50 NCI-IGROV1 (RFC/FRα/PCFT).

Where two headings read alike, the source gives them in different places.

Sequence of human AICARFTase/IMP cyclohydrolase (ATIC) (P31939 whole entry): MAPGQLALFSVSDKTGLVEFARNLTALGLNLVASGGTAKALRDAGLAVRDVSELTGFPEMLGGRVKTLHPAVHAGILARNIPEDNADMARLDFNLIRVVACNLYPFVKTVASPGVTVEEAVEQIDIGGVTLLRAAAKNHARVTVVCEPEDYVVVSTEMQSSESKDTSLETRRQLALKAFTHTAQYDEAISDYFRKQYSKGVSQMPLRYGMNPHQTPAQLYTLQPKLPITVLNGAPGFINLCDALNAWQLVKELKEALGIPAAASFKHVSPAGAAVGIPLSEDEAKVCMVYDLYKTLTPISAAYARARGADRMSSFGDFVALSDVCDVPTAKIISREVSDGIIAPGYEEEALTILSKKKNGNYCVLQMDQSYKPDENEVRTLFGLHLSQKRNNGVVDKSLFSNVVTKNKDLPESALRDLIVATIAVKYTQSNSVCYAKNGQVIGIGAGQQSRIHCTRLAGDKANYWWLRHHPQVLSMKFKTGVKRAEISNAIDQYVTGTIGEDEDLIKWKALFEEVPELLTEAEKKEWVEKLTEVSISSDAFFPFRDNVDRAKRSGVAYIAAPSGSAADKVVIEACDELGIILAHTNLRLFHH

For `Nc1nc2[nH]cc(CCCCc3ccc(C(=O)N[C@@H](CCC(=O)O)C(=O)O)cc3)c2c(=O)[nH]1` [AGF23], the “Protection by AICA” value with KB human tumor cells [1] is listed as “completely protected”.
For `Nc1nc2sc(CCCCc3ccc(C(=O)N[C@@H](CCC(=O)O)C(=O)O)cc3)cc2c(=O)[nH]1` [Compound 2], the “Protection by AICA” value in the test with KB human tumor cells [2] is “incomplete protection”. The IC50 in [3] is > 1000 nM.
With `Nc1nc2sc(CCCCc3ccc(C(=O)N[C@@H](CCC(=O)O)C(=O)O)s3)cc2c(=O)[nH]1` [Compound 3, (5-(4-(2-amino-4-oxo-3,4-dihydrothieno[2,3-d]pyrimidin-6-yl)butyl)thiophene-2-carbonyl)-L-glutamic acid], the IC50 in [4], in test [5] (setting [8]) and in [6] was > 1000 nM throughout. Moreover, the “fGAR level, % of control” value in the test on NCI-IGROV1 EOC cells was ~ 50 % of control. For the same compound, the “Increase in ZMP (AICAR) level” value with NCI-IGROV1 EOC cells was 2 fold.
`Nc1nc2sc(CCCCc3ccc(C(=O)N[C@@H](CCC(=O)O)C(=O)O)o3)cc2c(=O)[nH]1` [Compound 4, (5-(4-(2-amino-4-oxo-3,4-dihydrothieno[2,3-d]pyrimidin-6-yl)butyl)furan-2-carbonyl)-L-glutamic acid]: the IC50 in test [4], in test [5] (setting [8]), in test [5] (setting [9]) and in test [6] was > 1000 nM throughout.
Take `Nc1nc2sc(CCCc3ccc(C(=O)N[C@@H](CCC(=O)O)C(=O)O)s3)cc2c(=O)[nH]1` [Compound 5, (5-(3-(2-amino-4-oxo-3,4-dihydrothieno[2,3-d]pyrimidin-6-yl)propyl)thiophene-2-carbonyl)-L-glutamic acid]: the IC50 in test [4], in test [5] (setting [8]) and in [6] was > 1000 nM throughout. Further, in the test with NCI-IGROV1 EOC cells, the “fGAR level, % of control” value is ~ 75 % of control. Besides, the “Increase in ZMP (AICAR) level” value with NCI-IGROV1 EOC cells is 3 fold.
With `Nc1nc2sc(CCCc3csc(C(=O)N[C@@H](CCC(=O)O)C(=O)O)c3)cc2c(=O)[nH]1` [Compound 6, (4-(3-(2-amino-4-oxo-3,4-dihydrothieno[2,3-d]pyrimidin-6-yl)propyl)thiophene-2-carbonyl)-L-glutamic acid], the IC50 in test [4], in test [5] (setting [8]) and in test [6] was > 1000 nM each time.
`Nc1nc2sc(CCCc3cc(C(=O)N[C@@H](CCC(=O)O)C(=O)O)cs3)cc2c(=O)[nH]1` [Compound 7, (5-(3-(2-amino-4-oxo-3,4-dihydrothieno[2,3-d]pyrimidin-6-yl)propyl)thiophene-3-carbonyl)-L-glu-tamic acid]: the IC50 in [4], in [5] (setting [8]) and in test [6] was > 1000 nM each time.
As to `Nc1nc2sc(CCCCc3cc(C(=O)N[C@@H](CCC(=O)O)C(=O)O)cs3)cc2c(=O)[nH]1` [Compound 8, (5-(4-(2-amino-4-oxo-3,4-dihydrothieno[2,3-d]pyrimidin-6-yl)butyl)thiophene-3-carbonyl)-L-glutamic acid], the IC50 in [4], in test [5] (setting [8]), in test [5] (setting [9]) and in [6] was > 1000 nM in each case. Moreover, the “Fold decreased AICARFTase Ki over lead compound 2” value in test [7] was ~ 9 fold. Moreover, in test [5] (without folic acid, mean (SE)), the “IC50 NCI-IGROV1 (RFC/FRα/PCFT)” value is reported as “inert”. Moreover, the “Fold decreased GARFTase Ki over lead compound 2” value at human GARFTase is on record as ~ 20 fold.
On to `Nc1nc2sc(CCCCc3csc(C(=O)N[C@@H](CCC(=O)O)C(=O)O)c3)cc2c(=O)[nH]1` [Compound 9, (4-(4-(2-amino-4-oxo-3,4-dihydrothieno[2,3-d]pyrimidin-6-yl)butyl)thiophene-2-carbonyl)-L-glutamic acid], for which the IC50 in test [4], in [5] (setting [8]) and in test [6] was > 1000 nM each time.
